The source of these data is patent US12152174B2, “Adjustably stable adhesive compositions for medical and non-medical uses, and recycling” (THE REGENTS OF THE UNIVERSITY OF CALIFORNIA, priority 2023, dated 2024).

Series [1] is described as follows: Storage stability of precursor or polymer against polymerization or depolymerization. The format is physicochemical. The following applies: coated and heated at 100° C for 4 hrs under vacuum, no stabilizer. An excerpt:
The self-catalysis of α-lipoic acid takes place by the activation of disulfide with a carboxylic acid. Thus, we hypothesized that introduction of a functional group with higher electron density than disulfide will act as a potential competitor of disulfide, thereby suppressing initiation. […] However, the liquid undergoes ultrafast polymerization when brought into contact with water (FIG. 1) to yield an adhesive polymer. We surmise that due to its higher hydration energy, L4 becomes solvated as it comes in contact with water, leading to disulfide activation by the carboxylic acids. This approach provides an adhesive precursor suitable for spray, brush or injection mode of application. […] The coated PET was heated at 100° C. for 4 hrs under vacuum. The heat created a stable, sticky viscoelastic polymer, showing that the stabilizer molecules are also effective at high temperatures. By comparison, for example, pure α-lipoic acid treated under similar conditions also forms a sticky polymer, but within 2-3 days becomes a solid crystalline spot indicating depolymerization of the polymer. Although a stabilizer is needed in many applications that require a prolonged stability, the poly(asparagusic acid) without the stabilizer is sufficiently stable for some uses. […]

Series [2] is described as follows: Gelation of ethanolic adhesive precursor solution. The format is physicochemical. The following applies: pure solution at similar concentration, extended periods of time.
Series [3] can be described thus: Polymerization and depolymerization of ethanolic precursor on exposure to water or aqueous phosphate buffer. The format is physicochemical. The following applies: 400 mg/mL ethanolic solution added to aqueous phosphate buffer. The protocol: An ethanolic solution of pure α-lipoic acid L1 was prepared at 400 mg/mL and added to an aqueous phosphate buffer. A metastable sticky polymer was obtained, but within a few minutes (<5 min), the sticky polymer converted to a solid monomeric precipitate with no apparent adhesive property.
At any time prior to or after gelation of the precursor solution, exposure to water triggers dithiolane polymerization which can be exploited for the purposes of isolating a polymer adhesive or for adhering objects together. […] We believe α-lipoic acid undergoes self-catalyzed polymerization followed by stabilization with NHS esters. Nonetheless, the aqueous polymerization appears to be less sensitive and extremely fast irrespective of the solution concentrations. We believe that due to the amphiphilic nature of the α-lipoic acid, it undergoes micelle-like self-reorganization in contact with water, which locally concentrates the cyclic backbone to accelerate the polymerization rate. Furthermore, detailed ^1H NMR experiments of diluted ethanolic solution of the mixtures show excellent stability of the NHS esters even at an extended period. Therefore, this opens the possibility of an on-demand aqueous polymerization from a precursor ethanolic solution, which we considered to be advantageous for translation in medical and other underwater applications. […]

The nature of series [4]: Lap shear tissue adhesion on wet bovine pericardium. The following applies: adhesive with 14 mol % L2 vs 7 mol %. How it is done: An atomized spray was initially chosen, as it allows for quick evaporation of ethanol to increase the concentration of the mixture rapidly and eliminate any undesired flow of the adhesive solution on the tissue surfaces. A solution of L1 and L2 (7 mol %) was prepared and sprayed on two pieces of tissue surfaces (40 μL in 1 cm^2) and the two pieces were immediately brought into contact. After forming the lap joints, they were incubated for 2 minutes in PBS at 37° C. for further curing of the polymer network. The lap shear strength after 2 minutes on wet bovine pericardium tissue was >100 kPa, which was only slightly lower than medical-grade superglue (See FIG. 3A). […] The failure mode analyses of the lap joints was performed by applying N-bromo succinimide to the failed tissue surfaces to visually indicate by charge transfer complexation of disulfide functionality and therefore the presence of adhesive polymer. […] The enhanced lap shear strength at longer incubation time is consistent with the enhanced cohesive strength of the polymer network as observed in the rheology analysis of the wet polymer (see FIG. 2E).
Lap shear tissue adhesion was also performed with L3 on both wet bovine pericardium and pig skin.
To study the effect of stabilizer concentration on tissue adhesion strength, another lap shear test was performed with a higher L2 concentration (14 mol %). […]

A value given as a limit tells only on which side of the number the result lay.

Take `O=C(O)CCCCC1CCSS1` (stereo not drawn) [L1, α-lipoic acid]: the “time until sticky polymer becomes solid crystalline spot (depolymerization)” value in series [1] was in the range of 2 to 3 days. For the same compound, the gel formation result in series [2] was “did not form a gel”. Further, the “time until sticky polymer converted to solid monomeric precipitate (depolymerization)” value in series [3] is under 5 min.

For `O=C(CCCCC1CCSS1)ON1C(=O)CCC1=O` (stereo not shown) [L2, NHS-derivatized lipoic acid], the “shear strength at higher stabilizer concentration” value in series [4] is listed as “No significant difference”.
